Experimental data taken from patent US7175990B2, “Method of determining endometrial receptivity” (The Regents of the University of California, priority 2002, dated 2007).

Legend:
[1] = test system: explants of the human chorionic villous tree (trophoblast L-selectin); assay: Binding of selectin ligand-coated beads to first-trimester villous explant cultures under shear stress; format: cell-based; details: neoglycolipid-coated beads; cytotrophoblast column remnants and syncytiotrophoblasts
Experimental: Neoglycolipids were prepared by reductive amination of dipalmitoyl phosphatidylacetaldehyde with the aminoethyl glycoside of either sLe^x or 6-sulfo sLe^x 30 and dissolved in methanol (1 μg/μl). Blue 4-μm polystyrene latex beads (Interfacial Dynamics Corporation) were washed three times with ethanol, then resuspended in this solvent (1.2×10^8 beads/200 μl). Twenty-five micrograms of glycolipid was added, and the mixture was evaporated under nitrogen. Coated beads were washed three times in 1% BSA/PBS, then incubated with 3% BSA/PBS (2 h, room temperature). The beads were resuspended in 1 ml of 1% BSA/culture medium. Control beads were coated with phosphatidyl choline or used without coating.
Forty-eight first-trimester villous explant cultures were established (4 from 12 placentas; 2 experiments). After 24 h, the culture medium was removed, and 200 μl of a suspension of 2.4×10^7 beads in medium was added. Six explants were incubated with either experimental or control beads. Six other explants were pre-incubated with DREG-56 (30 min), then washed three times with medium before adding 6-sulfo sLe^x-coated beads. The explants were placed inside an incubator on a platform shaker (1 h; 20 cycles/min). Afterwards, bead suspensions were aspirated and explants were fixed in 3.8% paraformaldehyde (1 h, room temperature), washed three times in PBS (4° C.), and examined with a stereomicroscope. […]

[2] = test system: hatched mouse blastocysts; assay: Binding of selectin ligand-coated beads to hatched mouse blastocysts under shear stress; format: cell-based; details: neoglycolipid-coated 4-μm polystyrene beads
L-selectin = details: compared with sLe^x; cited from earlier work

Compound	binding of ligand-coated beads to human villus explants / trophoblasts [1]	binding of ligand-coated beads to hatched mouse blastocysts [2]	tightness of L-selectin binding, 6-sulfo sLe^x versus sLe^x (L-selectin)
CC(=O)NC1C(O)CC(OC2C(O)C(CO)OC(OC3C(CO)OC(O)C(NC(C)=O)C3OC3OC(C)C(O)C(O)C3O)C2O)(C(=O)O)OC1C(O)C(O)CO (centres unmarked) [sLe^x, Siaα2→3Galβ1→4[Fucα1→3]GlcNAc]	in fewer numbers	bound	–
Siaα2→3Galβ1→4[Fucα1→3][SO3→6]GlcNAc [6-sulfo sLe^x]	bound	bound	more tightly
